The values that follow come from publication PMC11225352, “A multicenter, randomized, double-blind, placebo-controlled ascending dose study to evaluate the safety, tolerability, pharmacokinetics (PK) and pharmacodynamic (PD) effects of Posiphen in subjects with early Alzheimer’s Disease” (Alzheimer's Research & Therapy, 2024).

Experiment [1] relates to Aβ40. Nature of the experiment: SILK analysis of CSF Aβ40 (fractional synthesis rate, IP-MS). It counts as in vivo, human. As for the experimental part: From June 5, 2017 to December 31, 2021, we conducted the DISCOVER randomized clinical trial at five participating sites, coordinated by the Alzheimer’s Disease Cooperative Study (ADCS) at UCSD, with funding from the National Institute on Aging and investigational product provided by Annovis, Inc. This study was approved by each participating site’s IRB and was registered on https://www.clinicaltrials.gov/ as NCT02925650. The trial was conducted according to the guidelines of good clinical practice (GCP) and was monitored by the ADCS. A Data Safety Monitoring Board (DSMB) reviewed data for each cohort and for the study overall. […]
For the confinement visit, subjects arrived in the early morning after an overnight fast. […] After 36 h, intravenous lines and the CSF catheter were removed, vital signs were measured, physical exam performed, and blood and CSF were sent for routine laboratory studies. […]
For biochemical analysis to derive data for SILK, ^13C6-leucine was analyzed in plasma and CSF by mass spectrometry, and Aβ peptides in CSF were analyzed by immunoprecipitation-mass spectrometry (IP-MS) as previously described, by C2N Diagnostics (St Louis, MO). CSF levels of sAPPα, sAPPβ, Aβ38, 40 and 42 were analyzed by the ADCS Biomarker Core using Mesoscale Discovery (MSD) electrochemiluminescent assays (Mesoscale Discovery, Rockville, MD). […]

In experiment [2] the test system is APP. Nature of the experiment: Post hoc comprehensive compartmental modeling of APP production rate from SILK data. In kind it is in vivo, human. On the procedure: For SILK, the fraction of labeled Aβ for Aβ38, 40, and 42 during 36 h after administration of study drug for each subject was calculated, as described. The FSR measures were calculated by fitting a line to the upslope of the CSF Aβ labeling data. It was assumed that the upslope occurred between hours 6–16 h after the start of confinement. FSR for treated and untreated subjects were compared by analysis of variance (ANOVA). The percentage of newly synthesized and degraded Aβ was estimated over 36 h by multiplying the […] concentration of Aβ measured at the start of confinement (i.e. at catheter placement; time = 0) by the percentage of Aβ that contains ^13C6-leucine at each time point. This can be used to estimate the AUC of the drug for decreasing the amount of newly produced Aβ [24]. As a post hoc analysis, the FSR measurement was also performed with different assumptions: the timeframe for measuring the upslope was automatically detected based on the slope of the SILK curve (see supplementary materials for method and code). As an additional post hoc analysis, a newer model for SILK that take into count the multiple compartments and CSF and other spaces involved in APP metabolism was also used to estimate APP production rates, as described below.
APP and Aβ production and clearance rates were determined using a recently described comprehensive model. The model accounts for the bi-hourly withdrawal of 6 mL of CSF, which is known to alter the lumbar CSF concentration of Aβ [25]. The model estimates rates of APP production, enzymatic production of Aβ, transport of Aβ from interstitial fluid (ISF) to CSF, enzymatic degradation of Aβ, blood-brain barrier transport of Aβ, as well as CSF mixing throughout the subarachnoid space (SAS) and clearance of CSF from cranial and spinal subarachnoid space (SAS). For the DISCOVER trial, MRI volumetric scans were not available, so CSF volumes (cranial, cisternal and ventricular) were estimated based on the subject’s age using data from the previous study (see Supplementary Materials). […]

Experiment [3] relates to Aβ40. Kind of experiment: CSF Aβ40 level, screening to day 21 (MSD immunoassay). In kind it is in vivo, human. Particulars: ANOVA with age and sex as covariates; p = 0.39. As for the experimental part: For biochemical analysis to derive data for SILK, ^13C6-leucine was analyzed in plasma and CSF by mass spectrometry, and Aβ peptides in CSF were analyzed by immunoprecipitation-mass spectrometry (IP-MS) as previously described, by C2N Diagnostics (St Louis, MO). CSF levels of sAPPα, sAPPβ, Aβ38, 40 and 42 were analyzed by the ADCS Biomarker Core using Mesoscale Discovery (MSD) electrochemiluminescent assays (Mesoscale Discovery, Rockville, MD). Levels of Posiphen and its N1 and N8 metabolites in plasma and CSF were measured by Charles River Laboratories (Montreal, CA) by high-performance liquid chromatographic mass spectrometry, with use of deuterated Posiphen (procured by Charles River Laboratories) as an internal standard.
Changes in CSF biomarkers from the screening to confinement (sample at time of placement of catheter) were compared in the treatment and placebo groups by ANOVA, with models that included age, sex and baseline MMSE, and further analysis stratified by treatment dose. A similar approach was taken to analyze changes in MMSE, ADAS-cog and NPI. Data were analyzed using R (version 4.2.2).

Experiment [4] relates to APP. Details: method as in PMID 36641607. To be noted: mild AD (n = 14), 80 mg once per day, up to 27 days; not significant; cited from earlier work.

Consider `CN1CC[C@]2(C)c3cc(OC(=O)Nc4ccccc4)ccc3N(C)[C@H]12` [Posiphen], for which, in the experiment with Aβ40 [1] (after 21 days, FSR from hours 6–16 and automated method, no dose-dependent effect), the “effect on FSR for CSF Aβ40 vs. placebo” value is “no significant effect”. Moreover, the “peak in labeling (SILK curve)” value with Aβ40 [1] (single 180 mg per day subject, previous study maximum 24.7 h) was “about 28 h”. For the same compound, the “APP production, placebo vs 120 mg per day group” value in the experiment with APP [2] (model with pre-drug lumbar CSF concentration as covariate) was “showed significance”. The APP production rate result in the experiment on APP [2] (single 180 mg per day subject) is given as “low”. For the same compound, in the experiment with APP [2] (subjects receiving 120 or 180 mg per day, differences not significant by non-parametric analysis), the APP production rates result is given as “trended lower”. Moreover, in the experiment on Aβ40 [3], the “CSF Aβ40, Treatment difference (Posiphen – placebo)” value is on record as -1.4 (1.57) p = 0.39 pg/mL. For the same compound, the “CSF APP before and after treatment” value in the experiment with APP [4] is recorded as “small reduction”.
